ED50 data for four compounds are collected here from patent EP0073845B1, “Imidazopyridine-spiro-piperidine compounds” (Yoshitomi Pharmaceutical Industries, Ltd., priority 1981, dated 1983).

Data set [1] deals with apomorphine-induced vomiting. Nature of the data set: Effect on apomorphine-induced vomiting. It is filed as in vivo. As to conditions: Canis lupus familiaris, po, 2 hours prior to apomorphine hydrochloride (0.1 mg/kg, s.c.); incidence of vomiting checked for 2 hours; beagle dogs. The procedure: (1) Effect on apomorphine-induced vomiting
The test was performed according to the method described by M. Nakanishi et al: in "Arzneimittel-Forschung", vol. 21, 391 ff (1971).
Groups of 5-10 beagle dogs of both sexes each were used. The test compound was administered orally 2 hours prior to the treatment with apomorphine hydrochloride (0.1 mg/kg, s.c.). The incidence of vomiting was checked for 2 hours, and the ED50 (50% effective dose) was determined.

A short description of another data set: Cataleptogenic activity. As to conditions: rat, in vivo, ip; Wistar female rats; from total points of the maximum appearance of catatonia. The procedure:
(2) Cataleptogenic Activity
The test was performed according to the method described by W. Wirth et al. in "Archives Internationales de Pharmacodynamie et de Therapie", vol, 115, 1 ff (1958).
Groups of 5 Wistar female rats each were used. […] The ED50 was determined from total points of the maximum appearance of catatonia.

For the compound `Cl.Cl.O.O=C1N=C2CCCCN2C12CCN(CCCN1c3ccccc3CCc3ccccc31)CC2` [C, 1'-[3-(10,11-dihydro-5H-dibenz[b,f]azepin-5-yl)propyl]-2,3,5,6,7,8-hexahydro-2-oxo-imidazo[1,2-a]pyridine-3-spiro-4'-piperidine dihydrochloride monohydrate], the 50% effective dose (ED50) in data set [1] is 2 mg/kg; in the data set “Cataleptogenic activity”, greater than 50 mg/kg.

Take `CN(C)CCCN1c2ccccc2Sc2ccc(Cl)cc21` [Chlorpromazine, reference compound]: the ED50 came to 5.1 mg/kg in data set [1] and 12 mg/kg in “Cataleptogenic activity”.

On to `Cl.Cl.O.O=C1NC2CCCCN2C12CCN(CCCN1c3ccccc3CCc3ccccc31)CC2` (centres unmarked) [A, 1'-[3-(10,11-dihydro-5H-dibenz[b,f]azepin-5-yl)propyl]-1,2,3,5,6,7,8,8a-octahydro-2-oxo-imidazo[1,2-a]pyridine-3-spiro-4'-piperidine dihydrochloride monohydrate], for which the figures for the ED50 (in data set [1]; in “Cataleptogenic activity”) were 2.5 mg/kg and greater than 50 mg/kg, respectively.

Regarding `Cl.Cl.O.O=C1NC2CCCCN2C12CCN(CCCN1c3ccccc3CCc3ccc(Cl)cc31)CC2` (centres unmarked) [B, 1'-[3-(3-chloro-10,11-dihydro-5H-dibenz[b,f]azepin-5-yl)propyl]-1,2,3,5,6,7,8,8a-octahydro-2-oxo-imidazo[1,2-a]pyridine-3-spiro-4'-piperidine dihydrochloride monohydrate], the median effective dose (ED50) in data set [1] is 0.5 mg/kg; in the data set “Cataleptogenic activity”, greater than 50 mg/kg.
